Values joined by “and” are separate entries in the source; they are usually repeats but may differ in a detail not shown here. Identical values can stand only once.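 Protocol summary: plate cells (96-well), add compound at 5 concentrations, incubate 48 h, interpolate endpoints linearly. GI50: concentration for 50% inhibition of growth. TGI is the concentration that stops growth completely.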 Where a SMILES comes first, the peptide text is derived from it. [ ]: non-standard residue; d: D form. The star is where a group is joined. ξ: configuration not given here. 4Abz = Nc1ccc(C(=O)O)cc1; ξL = CC(C)CC(N)C(=O)O; NHOH = ON*

What all share (assay): inhibition of tumour cell growth, NCI panel, 48 h
Assay [1] relates to OVCAR-8 ovarian.
Assay [2] has as its system SK-MEL-5 melanoma.
The subject of assay [3] is HCT-116 colon.
In assay [4] the test system is HT29 colon.
The subject of assay [5] is NCI-H23 lung.
Assay [6] deals with SK-OV-3 ovarian.
Assay [7] deals with A549 NSCLC.
In assay [8] the test system is RXF 393 renal.
The test system of assay [9] is U251 CNS.
The subject of assay [10] is 786-0 renal.

On to `CC1=NN(C(=O)CC(=O)Nc2ccccc2)C(=O)C1N=Nc1ccc(S(N)(=O)=O)cc1` (centres undefined), for which the TGI in assay [1], in assay [2], in [3], in assay [4], in assay [5] and in assay [6] was > 100 µM throughout. Moreover, the TGI in assay [7], in assay [8], in assay [9] and in [10] was > 100 µM throughout.
On to `CC(C)CC(NC(=O)[C@@H]1CCCN1C(=O)CNC(=O)c1ccc(N)cc1)C(=O)N[C@H](C)C(=O)NO` (some centres undefined) (H-[4Abz]GP[ξL][dA]-{NHOH}), for which the GI50 in assay [1], in [2], in assay [3], in assay [4], in [5] and in assay [6] was > 100 µM throughout. Moreover, the GI50 in assay [7], in [8], in assay [9] and in assay [10] was > 100 µM throughout. Moreover, the TGI in assay [1], in assay [2], in assay [3], in assay [4], in [5] and in [6] was > 100 µM throughout. In addition, the TGI in assay [7], in assay [8], in assay [9] and in assay [10] was > 100 µM in each case.
As for `CCCCCc1c(C)[nH]c(/C=C2\N=C(c3ccc[nH]3)C=C2Oc2ccc(OC)cc2)c1C`, the GI50 in assay [1] is 0.18 µM and 0.0412 µM; in [2], 0.0844 µM and 0.0187 µM; in [3] it was 0.0373 µM and 0.0269 µM; in assay [4], 0.068 µM and 0.0214 µM; in assay [5], 0.258 µM and 0.0806 µM; in assay [6], 0.392 µM and 0.141 µM. Also, the GI50 in [7] is 0.0339 µM; in assay [8], 0.12 µM and 0.0294 µM; in assay [9], 0.0811 µM and 0.026 µM; in assay [10], 0.141 µM and 0.0404 µM. Further, the TGI in assay [1] was 1.12 µM and 0.207 µM; in assay [2], 0.217 µM and 0.0466 µM; in [3], 1.13 µM and 0.127 µM; in assay [4], 1.94 µM and 1.26 µM; in [5] it was 2.84 µM and 1.55 µM; in assay [6] it was 2.25 µM and 1.39 µM. Moreover, the TGI in assay [7] was 0.165 µM; in assay [8] it was 0.567 µM and 0.244 µM; in [10], 0.328 µM and 0.315 µM.
`COC(=O)c1ccc2n[se]nc2c1`: the TGI in [1], in assay [2], in assay [3], in assay [4], in [5] and in [6] was > 100 µM in each case. Moreover, the TGI in assay [7], in assay [8], in [9] and in [10] was > 100 µM in each case.
On to `CC([C@H]1CCC2C3CCC4C(=O)C(NC=O)=CC[C@]4(C)C3CC[C@@]21C)N(C)C` (some centres undefined), for which the GI50 in assay [1] was 6.16 µM; in [2] it was 1.54 µM; in [3], 1.42 µM; in [4], 0.505 µM; in assay [5], 4.42 µM; in assay [6], 4.03 µM. Also, the GI50 in assay [7] was 3.81 µM; in assay [8], 4.66 µM; in assay [9] it was 3.43 µM; in [10], 2.48 µM. Also, the TGI in assay [1] was 40.9 µM; in [2], 3.04 µM; in assay [3], 3.95 µM; in [4] it was 2.37 µM; in assay [5], 18.7 µM; in assay [6], 12.9 µM. For the same compound, the TGI in assay [7] turned out to be 12.7 µM; in assay [8] it was 16.6 µM; in assay [9], 15.2 µM; in assay [10], 7.76 µM.
As for `CC(=O)OC1CC[C@@]2(C)C(CC(OC3OC(CO)C(O)C(O)C3O)[C@]3(C)C2CCC24CC23CC[C@H]4C(C)CC(O)[C@@H](O)C(C)(C)O)C1(C)C` (some centres undefined), the TGI in [1] was > 50 µM; in assay [2] it was 15.9 µM; in assay [3], 18.9 µM; in assay [4], > 50 µM; in assay [5], > 50 µM; in [6] it was > 50 µM. Further, the TGI is > 50 µM in assay [7], 30.1 µM in [8], 17.4 µM in [9] and 30.7 µM in assay [10].
As to `C[N+](C)(C)CC(=O)NC(=O)N/N=C\C(CC#N)CN(Cc1ccccc1)Cc1ccccc1` (centres undefined), the TGI in assay [1], in assay [2], in [3], in assay [4], in assay [5] and in assay [6] was > 100 µM in each case. Further, the TGI in assay [7], in assay [8], in assay [9] and in [10] was > 100 µM in each case.
In the case of `O=C(CCCCCCCCC(=O)OCCCn1cc(C(=O)NC(=O)OCc2ccccc2)c(=O)[nH]c1=O)OCCCn1cc(C(=O)NC(=O)OCc2ccccc2)c(=O)[nH]c1=O`, the TGI in assay [1], in [2], in assay [3], in assay [4], in assay [5] and in assay [6] was > 100 µM throughout. For the same compound, the TGI in assay [7], in assay [8], in assay [9] and in [10] was > 100 µM in each case.
On to `COc1cccc(-n2cnc3c(N/N=C/c4ccncc4)ncnc32)c1`, for which the GI50 is > 20.6 µM in [1]; 10.5 µM in [2]; 15.1 µM in assay [3]; 8.07 µM in assay [4]; > 25 µM in assay [5]; 7.88 µM in assay [6]. The GI50 in [7] was 17.6 µM; in assay [8], 6.42 µM; in assay [9], > 25 µM; in assay [10], 19.5 µM. Besides, the TGI is > 25 µM in assay [1]; > 25 µM in assay [2]; > 25 µM in assay [3]; > 25 µM in assay [4]; > 25 µM in [5]; > 23.7 µM in assay [6]. For the same compound, the TGI in [7], in assay [8], in [9] and in assay [10] was > 25 µM throughout.

The values above are taken from PubChem BioAssay (NCI).
